# Data: US12624042B2, “Compound for targeted degradation of BTK and anti-tumour use thereof” (SHANGHAI MEIZER PHARMACEUTICALS CO., LTD., priority 2020, dated 2026)
# Read-outs that look alike come from different tables or passages of the source.
# Tests used:
# [1] = test system: TMD8 (BTK-C481S) mutant cells; experiment: Proliferation inhibition of TMD8 (BTK-C481S) mutant cells (CCK-8); format: cell-based; settings: Homo sapiens
# Method: Cell plating: TMD8 (BTK-C481S) mutant cells in the logarithmic growth phase were taken, centrifuged, and an appropriate amount of complete medium was added to obtain a single-cell suspension. Cell counting was carried out with a hemocytometer, and a cell suspension of 1.5×10^5 cells/mL was prepared. 100 μL of cell suspension per well was inoculated in a 96-well culture plate, and cultured in a CO2 cell incubator for 24 hours.
# The plates were shaken well, placed in a CO2 cell incubator, and continued to incubate for 72h.
# CCK-8 detection: 72 hours after administration, 10% CCK-8 solution was added to each well. The plates were placed in a CO2 cell incubator, and incubated for 1-4 hours. The absorbance of each well was measured at 450 nm using a microplate reader.
# [2] = Caco-2 membrane permeability and efflux test; format: in vitro ADME; settings: human; for Papp A→B at 90 min: Caco-2, A-B; for Papp A→B at 90 min / Papp B→A at 90 min: Caco-2 monolayer, 37° C.; for Papp B→A at 90 min: Caco-2, B-A; for efflux ratio at 90 min: Caco-2, read-out: Papp(B-A)/Papp(A-B)
# Method: • 1) Caco-2 cells in the logarithmic growth phase were taken, digested and centrifuged and the cell concentration was adjusted to 4×10^5 cells/mL with MEM complete medium. • 2) 0.5 mL of cell suspension was added to the apical side (AP side) and 1.5 mL MEM cell complete medium was added to the basal side (BL side) of the Transwell plate, respectively. • 3) Culture in a cell constant temperature incubator, change the culture medium every two days, and change the medium every day after one week of culture. • 4) After about 21 days, the resistance value of the formed continuous monolayer film is greater than 100 Ω·cm^2, and the transport experiment is carried out within 3-5 days. • 5) The test compound solution was added to the AP side as the donor solution (Donor), and 1.5 mL of the receiver solution (Receiver) was added to the basal side (BL side). After the culture plate was placed in an incubator at 37° C. for 90 minutes, the AP side was separated from the BL side to terminate the reaction. • 6) Donor or Receiver samples were diluted with 0.4% DMSO in HBSS, and then mixed with acetonitrile. The LC conditions were as follows: mobile phase A: H2O—0.025% FA-1 mM NH4OAC, B: MeOH-0.025% FA-1 mM NH4OAC. Column: ACQUITY UPLC BEH_C18 ([…], 1.7 μm). Flow rate 0.60 mL/min. Gradient: 0.2 min 2% B, 0.6 min 98% B, 1.3 min 98% B, 1.31 min 2% B, 1.8 min stop. • 7) Calculation formula: Papp=(VA/(area×time))×([drug]receiver/([drug]donor)×dilution factor)
# where VA is the volume in the receiving chamber, area is the surface area of the membrane, and time is the total transport time in seconds.
# Drug molecules cross the single cell layer or via the cell gap from the apical side (AP side) to the basolateral side (BL side) of the Caco-2 monolayer are A to B, and vice versa are B to A. The efflux ratio: Papp(B−A)/Papp(A−B).
# BTK protein = biological target: T1, BTK protein (Homo sapiens, UniProt Q06187); experiment: Western blot assay for degradation of BTK protein in Jeko-1 cells; format: cell-based; settings: 24 hours of drug treatment, GAPDH internal reference
# T1 construct: endogenous in cells; host or cells: Jeko-1
# T1 sequence (Q06187 whole entry): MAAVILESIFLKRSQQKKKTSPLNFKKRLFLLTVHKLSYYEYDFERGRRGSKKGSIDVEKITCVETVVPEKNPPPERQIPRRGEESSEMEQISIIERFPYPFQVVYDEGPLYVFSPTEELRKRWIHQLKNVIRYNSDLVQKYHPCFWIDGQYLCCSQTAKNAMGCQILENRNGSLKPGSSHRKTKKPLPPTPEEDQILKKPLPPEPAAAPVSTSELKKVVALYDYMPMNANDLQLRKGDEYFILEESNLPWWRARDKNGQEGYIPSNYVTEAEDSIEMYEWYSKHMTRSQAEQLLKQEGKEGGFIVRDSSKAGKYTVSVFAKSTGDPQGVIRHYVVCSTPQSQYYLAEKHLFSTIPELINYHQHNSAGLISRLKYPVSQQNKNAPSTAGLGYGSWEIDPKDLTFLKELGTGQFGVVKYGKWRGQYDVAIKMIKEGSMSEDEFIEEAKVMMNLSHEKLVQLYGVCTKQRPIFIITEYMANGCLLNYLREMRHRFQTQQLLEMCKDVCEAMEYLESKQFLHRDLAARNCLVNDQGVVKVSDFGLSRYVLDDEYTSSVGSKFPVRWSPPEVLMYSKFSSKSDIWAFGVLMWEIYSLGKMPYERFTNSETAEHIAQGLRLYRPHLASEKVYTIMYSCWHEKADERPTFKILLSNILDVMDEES
# Method: (§1) The Jeko-1 cell line was cultured in RPMI-1640 medium containing 20% fetal bovine serum in an incubator at 37° C., 5% CO2, and saturated humidity. After the cells grew to the logarithmic growth phase, 5×10^6 cells per well were seeded in a 6-well culture plate, and a DMSO control group and a compound test group were set.
# (§2) After 24 hours of drug treatment, the cells were collected, added pre-cooled cell lysate, and lysed on ice for 45 min. After the cells were completely lysed, they were centrifuged, and the supernatant was taken and stored in an ice bath. The protein concentration was determined by Bradford protein concentration assay kit (detergent compatible type), and protein samples were prepared. After the proteins were separated by SDS-PAGE gel electrophoresis, they were transferred to PVDF membranes by wet method and blocked with 5% BSA solution at room temperature for 1 h. Diluted rabbit anti-human BTK and GAPDH were added according to the experimental requirements, and incubated overnight at 4° C. After washing the membrane with TBST, horseradish peroxidase-labeled goat anti-rabbit IgG secondary antibody dilution was added and incubated at room temperature for 1 h. After washing the membrane with TBST, the ECL luminescent solution was added in the gel imager for development and imaging. […]
# BTK-C481S mutant protein = biological target: T2, BTK-C481S mutant protein (Homo sapiens, UniProt Q06187, C481S); experiment: Western blot assay for degradation of BTK-C481S mutant protein in TMD8 (BTK-C481S) cells; format: cell-based; settings: 24 hours of drug treatment, GAPDH internal reference
# T2 construct: The TMD8 (BTK-C481S) mutant cell line was cultured in RPMI-1640 medium; endogenous in cells; host or cells: TMD8 (BTK-C481S) mutant cell line
# T2 sequence (Q06187 whole entry C481S): as the sequence (Q06187 whole entry) above, with C481S counted along it
# Method: as §1, with “TMD8 (BTK-C481S) mutant” for “Jeko-1”
# as §2
# OCI-LY10 tumor = experiment: Anti-tumor effect in mouse OCI-LY10 tumor model; format: in vivo; settings: SCID mice, OCI-LY10 subcutaneous, oral 100 mg/kg, twice a day, 14 days; rate=[1−(Day14−Day0)/Day0]*100%
# Method: OCI-LY10 cells were cultured in RPMI-1640 medium containing 10% fetal bovine serum (FBS). Cells were cultured at 37° C. in a 5% CO2 incubator.
# Cell inoculation method to establish tumor SCID mouse subcutaneous transplantation model: tumor cells in logarithmic growth phase were collected, counted and resuspended in RPMI-1640 medium. Matrigel was added at 1:1, and the concentration of cell suspension was adjusted to 4×10^7 cells/ml. Inoculate tumor cells subcutaneously on the right back of SCID mice with a 1 ml syringe, 4×10^6 cells/0.1 ml/mouse
# When the average volume of animal tumors is about 140 mm^3, animals with too large tumor, too small tumor, or have irregular tumor shapes were eliminated. The tumor-bearing mice with tumor volumes ranging from 101.34 to 209.86 mm 3 were selected, and were divided into groups by random block method, respectively as model group, compound group (oral 100 mg/kg, twice a day), 7 mice in each group. The day of grouping was Day 0, and administration was started according to the body weight of the animals.
# After 14 days of administration, the tumor volume was measured, and the tumor inhibition rate was calculated, and the calculation formula was as follows: Tumor inhibition rate=[1−(Day14 tumor volume−Day0 administration tumor volume)/Day0 administration tumor volume]*100%
# [3] = Sample-01, read-out: Papp Sample-01
# [4] = Sample-02, read-out: Papp Sample-02
# [5] = mean of two samples, read-out: Papp Mean
# [6] = TMD8 (BTK-C481S) mutant cells, 72h, CCK-8, read-out: IC50
"Papp A→B at 90 min [2, 3]","Papp A→B at 90 min [2, 4]","Papp A→B at 90 min [2, 5]","Papp B→A at 90 min [2, 3]","Papp B→A at 90 min [2, 4]","Papp B→A at 90 min [2, 5]",efflux ratio at 90 min [2],DC50 (BTK protein),DC50 (BTK-C481S mutant protein),SMILES,"IC50 ([1]; TMD8, 72 h)","IC50 [1, 6]",Tumor inhibition rate (OCI-LY10 tumor)
–,–,–,–,–,–,–,–,–,C=CC(=O)N1CCC[C@@H](n2nc(-c3ccc(Oc4ccccc4)cc3)c3c(N)ncnc32)C1 [Ibrutinib],125 nM,–,–
21.4 nm/s,21.6 nm/s,21.5 nm/s,335 nm/s,348 nm/s,342 nm/s,15.9,–,–,Nc1ncnc2c1c(-c1ccc(Oc3ccccc3)cc1)nn2C1CCN(CCOCCOCCNc2ccc3c(c2)C(=O)N(C2CCC(=O)NC2=O)C3=O)CC1 (centres unmarked) [Control compound 3],–,–,–
55.5 nm/s,51.6 nm/s,53.5 nm/s,71.8 nm/s,69.9 nm/s,70.9 nm/s,1.32,2.3 nM,9.9 nM,Nc1ncnc2c1c(-c1ccc(Oc3ccccc3)cc1)nn2C1CCN(CCCCCOCCOc2ccc3c(c2)CN(C2CCC(=O)NC2=O)C3=O)CC1 (centres unmarked) [Compound 1],–,7.1 nM,175%
23.7 nm/s,22.6 nm/s,23.2 nm/s,27.3 nm/s,27.5 nm/s,27.4 nm/s,1.18,1.5 nM,3.1 nM,Nc1ncnc2c1c(-c1ccc(Oc3ccccc3)cc1)nn2C1CCN(CCOCCCCCOc2ccc3c(c2)CN(C2CCC(=O)NC2=O)C3=O)CC1 (centres unmarked) [Compound 2],–,17.7 nM,189%
10.7 nm/s,10.4 nm/s,10.5 nm/s,302 nm/s,394 nm/s,348 nm/s,33,–,–,Nc1ncnc2c1c(-c1ccc(Oc3ccccc3)cc1)nn2C1CCN(CCOCCOCCNc2ccc3c(c2)CN(C2CCC(=O)NC2=O)C3=O)CC1 (centres unmarked) [Control compound 1],–,–,–
10.2 nm/s,10 nm/s,10.1 nm/s,181 nm/s,186 nm/s,184 nm/s,18.1,–,–,Nc1ncnc2c1c(-c1ccc(Oc3ccccc3)cc1)nn2C1CCCN(CCOCCOCCOCCOCCNc2cccc3c2C(=O)N(C2CCC(=O)NC2=O)C3=O)C1 (centres unmarked) [Control compound 2],–,–,–
